The text below walks through data of patent US20210122739A1, “NOVEL SULFONAMIDE CARBOXAMIDE COMPOUNDS” (Inflazome Limited, priority 2017, published 2021).

In assay [1] the target is T1, NLRP3 (Homo sapiens, UniProt Q96P20). Put plainly: THP-1 cells pyroptosis assay. Further details: Seed THP-1 cells (25,000 cells/well) containing 1.0 μg/ml LPS; host or cells: THP-1 cells, LPS-primed, nigericin-stimulated. In kind it is cell-based. As to conditions: 1.0 μg/ml LPS, nigericin 5 μM, resazurin readout. The source says:
It is well established that the activation of NLRP3 leads to cell pyroptosis and this feature plays an important part in the manifestation of clinical disease (Yan-gang Liu et al., Cell Death & Disease, 2017, 8(2), e2579; Alexander Wree et al., Hepatology, 2014, 59(3), 898-910; Alex Baldwin et al., Journal of Medicinal Chemistry, 2016, 59(5), 1691-1710; Ema Ozaki et al., Journal of Inflammation Research, 2015, 8, 15-27; Zhen Xie & Gang Zhao, Neuroimmunology Neuroinflammation, 2014, 1(2), 60-65; Mattia Cocco et al., Journal of Medicinal Chemistry, 2014, 57(24), 10366-10382; T. Satoh et al., Cell Death & Disease, 2013, 4, e644). Therefore, it is anticipated that inhibitors of NLRP3 will block pyroptosis, as well as the release of pro-inflammatory cytokines (e.g. IL-1β) from the cell.
THP-1 cells (ATCC #TIB-202) were grown in RPMI containing L-glutamine (Gibco #11835) supplemented with 1 mM sodium pyruvate (Sigma #S8636) and penicillin (100 units/ml)/streptomycin (0.1 mg/ml) (Sigma #P4333) in 10% Fetal Bovine Serum (FBS) (Sigma #F0804). The cells were routinely passaged and grown to confluency (˜10^6 cells/ml). On the day of the experiment, THP-1 cells were harvested and resuspended into RPMI medium (without FBS). The cells were then counted and viability (>90%) checked by Trypan blue (Sigma #T8154). Appropriate dilutions were made to give a concentration of 625,000 cells/ml. To this diluted cell solution was added LPS (Sigma #L4524) to give a 1 μg/ml Final Assay Concentration (FAC). 40 μl of the final preparation was aliquoted into each well of a 96-well plate. The plate thus prepared was used for compound screening.
The following method step-by-step assay was followed for compound screening. • 1. Seed THP-1 cells (25,000 cells/well) containing 1.0 μg/ml LPS in 40 μl of RPMI medium (without FBS) in 96-well, black walled, clear bottom cell culture plates coated with poly-D-lysine (VWR #734-0317) • 2. Add […] compound (8 points half-log dilution, with 10 μM top dose) or vehicle (DMSO 0.1% FAC) to the appropriate wells • 3. Incubate for 3 hrs at 37° C. in 5% CO2 • 4. Add 5 μl nigericin (Sigma #N7143) (FAC 5 μM) to all wells • 5. Incubate for 1 hr at 37° C. and 5% CO2 • 6. At the end of the incubation period, spin plates at 300×g for 3 mins and remove supernatant • 7. Then add 50 μl of resazurin (Sigma #R7017) (FAC 100 μM resazurin in RPMI medium without FBS) and incubate plates for a further 1-2 hrs at 37° C. and 5% CO2 • 8. Plates were read in an Envision reader at Ex 560 nm and Em 590 nm • 9. IC50 data is fitted to a non-linear regression equation (log inhibitor vs response-variable slope 4-parameters)

The target in assay [2] is T1, NLRP3. As to the kind of experiment: Human whole blood IL1β release assay. Further details: Plate out 80 μl of whole blood containing 1 μg/ml of LPS; from tissue; host or cells: human whole blood from healthy donors, LPS-primed, nigericin-stimulated. The class given is cell-based. As to conditions: 1 μg/ml LPS, nigericin 10 μM, IL-1β by AlphaLisa, read-out: HWB IC50. Here is the method:
For systemic delivery, the ability to inhibit NLRP3 when the compounds are present within the bloodstream is of great importance. For this reason, the NLRP3 inhibitory activity of a number of compounds in human whole blood was investigated in accordance with the following protocol.
Human whole blood in Li-heparin tubes was obtained from healthy donors from a volunteer donor panel. • 1. Plate out 80 μl of whole blood containing 1 μg/ml of LPS in 96-well, clear bottom cell culture plate (Corning #3585) • 2. Add 10 μl compound (8 points half-log dilution with 10 μM top dose) or vehicle (DMSO 0.1% FAC) to the appropriate wells • 3. Incubate for 3 hrs at 37° C., 5% CO2 • 4. Add 10 μl Nigericin (Sigma #N7143) (10 μM FAC) to all wells • 5. Incubate for 1 hr at 37° C., 5% CO2 • 6. At the end of the incubation period, spin plates at 300×g for 5 mins to pellet cells and remove 20 μl of supernatant and add to 96-well v-bottom plates for IL-1β analysis (note: these plates containing the supernatants can be stored at −80° C. to be analysed at a later date) • 7. IL-1β was measured according to the manufacturer protocol (Perkin Elmer-AlphaLisa IL-1 Kit AL220F-5000) • 8. IC50 data is fitted to anon-linear regression equation (log inhibitor vs response-variable slope 4-parameters)

Bounds are passed on as bounds.

T1 sequence (Q96P20 whole entry): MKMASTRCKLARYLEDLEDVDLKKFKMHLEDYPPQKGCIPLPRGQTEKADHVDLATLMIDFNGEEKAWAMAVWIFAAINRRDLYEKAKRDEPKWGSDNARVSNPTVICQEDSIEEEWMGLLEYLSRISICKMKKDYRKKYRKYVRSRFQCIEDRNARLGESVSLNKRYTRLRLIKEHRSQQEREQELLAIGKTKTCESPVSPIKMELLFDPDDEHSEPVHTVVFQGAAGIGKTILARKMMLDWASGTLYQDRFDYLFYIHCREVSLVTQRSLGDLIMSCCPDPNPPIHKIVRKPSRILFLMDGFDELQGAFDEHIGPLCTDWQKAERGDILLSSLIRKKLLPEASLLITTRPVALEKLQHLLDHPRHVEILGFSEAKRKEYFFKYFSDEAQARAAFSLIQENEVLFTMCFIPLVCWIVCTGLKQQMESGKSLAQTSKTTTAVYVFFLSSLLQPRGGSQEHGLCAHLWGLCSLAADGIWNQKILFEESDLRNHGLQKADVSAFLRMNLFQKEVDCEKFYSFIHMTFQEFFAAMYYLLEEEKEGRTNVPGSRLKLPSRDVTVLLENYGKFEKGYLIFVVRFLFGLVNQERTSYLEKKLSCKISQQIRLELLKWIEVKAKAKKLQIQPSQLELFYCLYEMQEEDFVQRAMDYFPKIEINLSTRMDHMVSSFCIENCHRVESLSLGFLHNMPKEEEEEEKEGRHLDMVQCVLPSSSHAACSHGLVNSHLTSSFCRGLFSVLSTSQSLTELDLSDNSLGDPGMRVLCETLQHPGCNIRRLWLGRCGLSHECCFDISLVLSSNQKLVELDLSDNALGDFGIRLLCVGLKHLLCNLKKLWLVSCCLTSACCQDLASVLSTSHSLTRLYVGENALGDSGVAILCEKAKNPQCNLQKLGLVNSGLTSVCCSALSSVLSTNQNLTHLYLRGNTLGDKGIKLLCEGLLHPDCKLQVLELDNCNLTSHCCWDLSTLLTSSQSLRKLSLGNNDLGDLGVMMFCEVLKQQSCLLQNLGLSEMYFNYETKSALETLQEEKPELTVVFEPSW

As to `CC(=O)N(C)Cc1cc(S(=O)(=O)NC(=O)Nc2c3c(cc4c2CCC4)CCC3)nn1C(C)C` [Example 29, N-((3-(N-((1,2,3,5,6,7-Hexahydro-s-indacen-4-yl)carbamoyl)sulfamoyl)-1-isopropyl-1H-pyrazol-5-yl)methyl)-N-methylacetamide], the IC50 against NLRP3 [1] was in the range of 40 to 160 nM; at NLRP3 [2] it was 400 to 800 nM.

For `CNC(=O)c1cc(S(=O)(=O)NC(=O)Nc2c(C(C)C)cc(Cl)cc2C(C)C)nn1C` [Example 32, 3-(N-((4-Chloro-2,6-diisopropylphenyl)carbamoyl)sulfamoyl)-N,1-dimethyl-1H-pyrazole-5-carboxamide], the IC50 against NLRP3 [1] fell in the range of 160 to 640 nM; on NLRP3 [2], 1600 to 3200 nM.

Regarding `CC(C)c1cc(F)cc(-c2cnn(C)c2)c1NC(=O)NS(=O)(=O)c1cc(C(=O)N(C)C)n(C)n1` [Example 35, 3-(N-((4-Fluoro-2-isopropyl-6-(1-methyl-H-pyrazol-4-yl)phenyl)carbamoyl)sulfamoyl)-N,N,1-trimethyl-1H-pyrazole-5-carboxamide], the values for the IC50 on NLRP3 [1] and at NLRP3 [2] were 640 to 2560 nM and below 400 nM, respectively.

For `CC(C)c1cccc(C(C)C)c1NC(=O)NS(=O)(=O)c1cc(C(=O)N2CC(F)C2)n(C)n1` [Example 39, N-((2,6-Diisopropylphenyl)carbamoyl)-5-(3-fluoroazetidine-1-carbonyl)-1-methyl-1H-pyrazole-3-sulfonamide], the IC50 was in the range of 640 to 2560 nM at NLRP3 [1] and 800 to 1600 nM at NLRP3 [2].

In the case of `CC(C)c1cc(F)cc(-c2cncnc2)c1NC(=O)NS(=O)(=O)c1cc(C(=O)N(C)C)n(C)n1` [Example 42, 3-(N-((4-Fluoro-2-isopropyl-6-(pyrimidin-5-yl)phenyl)carbamoyl)sulfamoyl)-N,N,1-trimethyl-1H-pyrazole-5-carboxamide], the IC50 is 160 to 640 nM at NLRP3 [1] and below 400 nM at NLRP3 [2].

For the compound `CC(C)c1cccc(C(C)C)c1NC(=O)NS(=O)(=O)c1cc(C(=O)N(C)C2CC2)n(C)n1` [Example 43, N-Cyclopropyl-3-(N-((2,6-diisopropylphenyl)carbamoyl)sulfamoyl)-N,1-dimethyl-1H-pyrazole-5-carboxamide], the IC50 against NLRP3 [1] fell in the range of 40 to 160 nM; on NLRP3 [2], 800 to 1600 nM.

In the case of `CC(C)c1ccc(C(C)C)c(NC(=O)NS(=O)(=O)c2cc(C(=O)N(C)C)n(C)n2)c1` [Example 44, 3-(N-((2,5-Diisopropylphenyl)carbamoyl)sulfamoyl)-N,N,1-trimethyl-1H-pyrazole-5-carboxamide], the IC50 was in the range of 160 to 640 nM at NLRP3 [1] and 3200 to 10000 nM at NLRP3 [2].

Turning to `CC(C)c1cc(F)cc(C(C)C)c1NC(=O)NS(=O)(=O)c1cc(C(=O)N(C)C(C)C)n(C)n1` [Example 47, 3-(N-((4-Fluoro-2,6-diisopropylphenyl)carbamoyl)sulfamoyl)-N-isopropyl-N,1-dimethyl-1H-pyrazole-5-carboxamide], the IC50 is 40 to 160 nM on NLRP3 [1] and 400 to 800 nM on NLRP3 [2].

For the compound `CCN(C)C(=O)c1cc(S(=O)(=O)NC(=O)Nc2c(C(C)C)cc(F)cc2C(C)C)nn1C` [Example 49, N-Ethyl-3-(N-((4-fluoro-2,6-diisopropylphenyl)carbamoyl)sulfamoyl)-N,1-dimethyl-1H-pyrazole-5-carboxamide], the IC50 against NLRP3 [1] was 160 to 640 nM; on NLRP3 [2], 400 to 800 nM.

`CNC(=O)c1cc(S(=O)(=O)NC(=O)Nc2c(C(C)C)cc(F)cc2C(C)C)nn1C` [Example 50, 3-(N-((4-Fluoro-2,6-diisopropylphenyl)carbamoyl)sulfamoyl)-N,1-dimethyl-1H-pyrazole-5-carboxamide]: the IC50 against NLRP3 [1] is 160 to 640 nM; at NLRP3 [2], below 400 nM.

Turning to `CC(C)c1cccc(C(C)C)c1NC(=O)NS(=O)(=O)c1cc(C(=O)N2CCC2)n(C)n1` [Example 51, 5-(Azetidine-1-carbonyl)-N-((2,6-diisopropylphenyl)carbamoyl)-1-methyl-1H-pyrazole-3-sulfonamide], the IC50 against NLRP3 [1] was 160 to 640 nM; on NLRP3 [2], below 400 nM.

For `CN(C(=O)c1cc(S(=O)(=O)NC(=O)Nc2c3c(cc4c2CCC4)CCC3)nn1C)C1CC1` [Example 52, N-Cyclopropyl-3-(N-((1,2,3,5,6,7-hexahydro-s-indacen-4-yl)carbamoyl)sulfamoyl)-N,1-dimethyl-1H-pyrazole-5-carboxamide], the IC50 on NLRP3 [1] was in the range of 40 to 160 nM; at NLRP3 [2] it was 400 to 800 nM.

`CN(CC#N)C(=O)c1cc(S(=O)(=O)NC(=O)Nc2c3c(cc4c2CCC4)CCC3)nn1C` [Example 53, N-(Cyanomethyl)-3-(N-((1,2,3,5,6,7-hexahydro-s-indacen-4-yl)carbamoyl)sulfamoyl)-N,1-dimethyl-1H-pyrazole-5-carboxamide]: the IC50 lay in the range of 160 to 640 nM on NLRP3 [1] and 800 to 1600 nM on NLRP3 [2].

As to `Cn1nc(S(=O)(=O)NC(=O)Nc2c3c(cc4c2CCC4)CCC3)cc1C(=O)N1CCC1` [Example 54, 5-(Azetidine-1-carbonyl)-N-((1,2,3,5,6,7-hexahydro-s-indacen-4-yl)carbamoyl)-1-methyl-1H-pyrazole-3-sulfonamide], the 50% inhibitory concentration (IC50) fell in the range of 40 to 160 nM against NLRP3 [1] and 1600 to 3200 nM on NLRP3 [2].

For the compound `CNC(=O)c1cc(S(=O)(=O)NC(=O)Nc2c(C(C)C)cccc2C(C)C)nn1C` [Example 55, 3-(N-((2,6-Diisopropylphenyl)carbamoyl)sulfamoyl)-N,1-dimethyl-1H-pyrazole-5-carboxamide], the IC50 against NLRP3 [1] is 160 to 640 nM; at NLRP3 [2] it was 400 to 800 nM.

As to `CCN(C)C(=O)c1cc(S(=O)(=O)NC(=O)Nc2c(C(C)C)cccc2C(C)C)nn1C` [Example 56, 3-(N-((2,6-Diisopropylphenyl)carbamoyl)sulfamoyl)-N-ethyl-N,1-dimethyl-1H-pyrazole-5-carboxamide], the figures for the IC50 against NLRP3 [1] and on NLRP3 [2] were 640 to 2560 nM and 1600 to 3200 nM, respectively.

Take `CC(C)c1cccc(C(C)C)c1NC(=O)NS(=O)(=O)c1cc(C(=O)N(C)C(C)C)n(C)n1` [Example 58, 3-(N-((2,6-Diisopropylphenyl)carbamoyl)sulfamoyl)-N-isopropyl-N,1-dimethyl-1H-pyrazole-5-carboxamide]: the half-inhibitory concentration (IC50) against NLRP3 [1] was 160 to 640 nM; on NLRP3 [2], 400 to 800 nM.

Regarding `CC(C)N(C)C(=O)c1cc(S(=O)(=O)NC(=O)Nc2c3c(cc4c2CCC4)CCC3)nn1C` [Example 64, 3-(N-((1,2,3,5,6,7-Hexahydro-s-indacen-4-yl)carbamoyl)sulfamoyl)-N-isopropyl-N,1-dimethyl-1H-pyrazole-5-carboxamide], the IC50 against NLRP3 [1] is 40 to 160 nM; on NLRP3 [2], 1600 to 3200 nM.

As for `CCN(CC)C(=O)c1cc(S(=O)(=O)NC(=O)Nc2c3c(cc4c2CCC4)CCC3)nn1C` [Example 65, N,N-Diethyl-3-(N-((1,2,3,5,6,7-hexahydro-s-indacen-4-yl)carbamoyl)sulfamoyl)-1-methyl-1H-pyrazole-5-carboxamide], the IC50 on NLRP3 [1] fell in the range of 40 to 160 nM; at NLRP3 [2] it was 800 to 1600 nM.
